Measured values: patent US11008317B2, “Triazolopyridine inhibitors of myeloperoxidase and/or EPX” (priority 2016, dated 2021)

Tests used:
[1] = molecular target: T1, myeloperoxidase (Homo sapiens, UniProt P05164); assay: MPO Chlorination Assay (APF Assay); format: biochemical; settings: potency range class, read-out: APF Assay IC50 value
T1 sequence (P05164 49-745): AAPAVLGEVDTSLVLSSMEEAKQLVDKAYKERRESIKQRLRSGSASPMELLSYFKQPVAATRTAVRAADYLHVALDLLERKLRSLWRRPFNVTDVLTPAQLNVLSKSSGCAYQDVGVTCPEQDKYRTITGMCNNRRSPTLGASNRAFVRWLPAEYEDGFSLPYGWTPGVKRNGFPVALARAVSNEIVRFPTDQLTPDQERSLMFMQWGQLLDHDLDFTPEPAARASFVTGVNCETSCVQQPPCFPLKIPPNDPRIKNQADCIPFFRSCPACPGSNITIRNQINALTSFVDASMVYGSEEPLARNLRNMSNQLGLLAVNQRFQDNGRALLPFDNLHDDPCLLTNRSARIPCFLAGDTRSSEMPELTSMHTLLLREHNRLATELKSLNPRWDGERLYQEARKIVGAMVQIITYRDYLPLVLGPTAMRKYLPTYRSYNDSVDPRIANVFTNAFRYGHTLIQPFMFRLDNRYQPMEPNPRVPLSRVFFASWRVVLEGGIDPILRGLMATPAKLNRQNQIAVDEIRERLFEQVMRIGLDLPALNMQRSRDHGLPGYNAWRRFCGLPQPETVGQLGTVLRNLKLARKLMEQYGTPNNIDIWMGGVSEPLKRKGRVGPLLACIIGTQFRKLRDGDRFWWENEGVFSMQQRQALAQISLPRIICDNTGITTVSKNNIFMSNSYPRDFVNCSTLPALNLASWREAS

[2] = molecular target: T1, myeloperoxidase; assay: MPO Peroxidation Assay (Amplex Red Assay); format: biochemical; settings: potency range class, read-out: Amplex Red Assay IC50 value

Structure (SMILES)	IC50 [1] [nM]	IC50 [2] [nM]
Nc1cc(C(CCN[C@@H]2CCc3ccc(F)cc32)c2ccccc2)c2nn[nH]c2n1 (stereo partly drawn) [Example 60, 7-(3-{[(1R)-6-fluoro-2,3-dihydro-1H-inden-1-yl]amino}-1-phenylpropyl)-3H-[1,2,3]triazolo[4,5-b]pyridin-5-amine]	1 to 100	101 to 999
Cc1cccc(C)c1CNCCC(c1ccccc1)c1cc(N)nc2[nH]nnc12 (stereo not shown) [Example 27, 7-(3-{[(2,6-dimethylphenyl)methyl]amino}-1-phenylpropyl)-3H-[1,2,3]triazolo[4,5-b] pyridin-5-amine]	101 to 999	101 to 999
CC1(NCCC(c2ccccc2)c2cc(N)nc3[nH]nnc23)CCC(c2ccccc2)CC1 (mixture of isomers) [Example 143, 7-{3-[(1-methyl-4-phenylcyclohexyl)amino]-1-phenylpropyl}-3H-[1,2,3]triazolo[4,5-b]pyridin-5-amine]	101 to 999	101 to 999
Nc1cc([C@H](CCCN2CCC3(CC2)NC(=O)Cc2ccccc23)c2ccccc2)c2nn[nH]c2n1 [Example 217, 1′-[(4R)-4-{5-amino-3H-[1,2,3]triazolo [4,5-b]pyridin-7-yl}-4-phenylbutyl]-3,4-dihydro-2H-spiro[isoquinoline-1,4′-piperidine]-3-one]	101 to 999	101 to 999
CC1CC2(NCCC(c3ccccc3)c3cc(N)nc4[nH]nnc34)CCC1(c1ccccc1)CC2 (stereo not shown) [Example 147, 7-[3-({3-methyl-4-phenylbicyclo[2.2.2]octan-1-yl}amino)-1-phenylpropyl]-3H-[1,2,3]triazolo [4,5-b]pyridin-5-amine]	1 to 100	1 to 100
NC(=O)c1ccc(-c2cccc3[nH]c(C[C@H](c4ccccc4)c4cc(N)nc5[nH]nnc45)nc23)cc1 [Example 249, (R)-4-(2-(2-(5-amino-3H-[1,2,3]triazolo [4,5-b]pyridin-7-yl)-2-phenylethyl)-1H-benzo[d]imidazol-4-yl)benzamide]	1 to 100	101 to 999
CN(C)C(=O)c1cccc(CNCCC(c2ccccc2)c2cc(N)nc3[nH]nnc23)c1 (stereo not shown) [Example 72, 3-{[(3-{5-amino-3H-[1,2,3]triazolo[4,5-b]pyridin-7-yl}-3-phenylpropyl)amino]methyl}-N,N-dimethylbenzamide]	101 to 999	101 to 999
Nc1cc(C(CCCN2CCC(O)(c3ccccc3)CC2)c2ccccc2)c2nn[nH]c2n1 (stereo not shown) [Example 207, 1-(4-{5-amino-3H-[1,2,3]triazolo [4,5-b]pyridin-7-yl}-4-phenylbutyl)-4-phenylpiperidin-4-ol]	1 to 100	101 to 999
Nc1cc(C(CCN[C@H]2CC[C@H](c3ccccc3)CC2)c2cccc(Cl)c2)c2nn[nH]c2n1 (stereo partly drawn) [Example 162, 7-[1-(3-chlorophenyl)-3-{[(trans)-4-phenylcyclohexyl]amino}propyl]-3H-[1,2,3]triazolo [4,5-b]pyridin-5-amine]	1 to 100	101 to 999
Nc1cc([C@H](Cc2nc3c(-c4ccccc4Cl)cccc3[nH]2)c2ccccc2)c2nn[nH]c2n1 [Example 260, (R)-7-(2-(4-(2-chlorophenyl)-1H-benzo[d]imidazol-2-yl)-1-phenylethyl)-3H-[1,2,3]triazolo [4,5-b]pyridin-5-amine]	101 to 999	1000 to 10000
Nc1cc(C(CCN[C@H]2CCc3c(Cl)cccc32)c2ccccc2)c2nn[nH]c2n1 (stereo partly drawn) [Example 73, 7-(3-{[(1S)-4-chloro-2,3-dihydro-1H-inden-1-yl]amino}-1-phenylpropyl)-3H-[1,2,3]triazolo [4,5-b]pyridin-5-amine]	1 to 100	1000 to 10000
Nc1cc([C@H](CC(=O)NC23CCC(c4ccccc4)(CC2)C(O)C3)c2ccccc2)c2nn[nH]c2n1 (stereo partly drawn) [Example 201, (3R)-3-{5-amino-3H-[1,2,3]triazolo[4,5-b]pyridin-7-yl}-N-{3-hydroxy-4-phenylbicyclo [2.2.2]octan-1-yl}-3-phenylpropanamide]	1 to 100	101 to 999
Nc1cc(C(CCCN2CCCC(c3ccccc3)CC2)c2ccccc2)c2nn[nH]c2n1 (stereo not shown) [Example 212, 7-[1-phenyl-4-(4-phenylazepan-1-yl)butyl]-3H-[1,2,3] triazolo[4,5-b] pyridin-5-amine]	1 to 100	101 to 999
COc1ccncc1[C@H]1CC[C@@H](NCCC(c2ccccc2)c2cc(N)nc3[nH]nnc23)CC1 (stereo partly shown) [Example 138, 7-(1-phenyl-3-{[(1s,4s)-4-(4-methoxypyridin-3-yl)cyclohexyl]amino}propyl)-3H-[1,2,3]triazolo [4,5-b]pyridin-5-amine]	1000 to 10000	1000 to 10000

The remaining lines, values ahead:

IC50 [1] [nM]	IC50 [2] [nM]	Structure (SMILES)
101 to 999	101 to 999	Nc1cc(C(CNCC(F)(F)c2ccccc2)c2ccccc2)c2nn[nH]c2n1 (stereo not shown) [Example 226, 7-(2-((2,2-difluoro-2-phenylethyl)amino)-1-phenylethyl)-3H-[1,2,3]triazolo[4,5-b]pyridin-5-amine]
101 to 999	1 to 100	Nc1cc(C(CCC(=O)Cc2ccccc2)c2ccccc2)c2nn[nH]c2n1 (stereo not shown) [Example 233, 5-(5-amino-3H-[1,2,3]triazolo[4,5-b]pyridin-7-yl)-1,5-diphenylpentan-2-one]
1 to 100	1 to 100	Nc1cc(C(CCNC2CCCc3ccccc32)c2ccccc2)c2nn[nH]c2n1 (stereo not shown) [Example 29, 7-{1-phenyl-3-[(1,2,3,4-tetrahydronaphthalen-1-yl)amino]propyl}-3H-[1,2,3]triazolo [4,5-b]pyridin-5-amine]
1 to 100	101 to 999	CC1C[C@H](NCCC(c2ccccc2)c2cc(N)nc3[nH]nnc23)c2ccccc21 (stereo partly drawn) [Example 95, 7-(3-{[(1S)-3-methyl-2,3-dihydro-1H-inden-1-yl]amino}-1-phenylpropyl)-3H-[1,2,3]triazolo[4,5-b]pyridin-5-amine]
101 to 999	101 to 999	Nc1cc(C(CCCN2CCC(Cc3ccccc3)CC2)c2ccccc2)c2nn[nH]c2n1 (stereo not shown) [Example 213, 7-[4-(4-benzylpiperidin-1-yl)-1-phenylbutyl]-3H-[1,2,3]triazolo [4,5-b]pyridin-5-amine]
1 to 100	101 to 999	Nc1cc(C(CCN[C@H]2C[C@@H](c3ccccc3)C2)c2ccccc2)c2nn[nH]c2n1 (stereo partly shown) [Example 76, 7-(1-phenyl-3-{[(1s,3s)-3-phenylcyclobutyl]amino}propyl)-3H-[1,2,3]triazolo[4,5-b]pyridin-5-amine]
1 to 100	101 to 999	Nc1cc(C(CCNC(Cc2ccccc2)c2ccccc2)c2ccccc2)c2nn[nH]c2n1 (stereo not shown) [Example 48, 7-{3-[(1,2-diphenylethyl)amino]-1-phenylpropyl}-3H-[1,2,3]triazolo[4,5-b]pyridin-5-amine]
1 to 100	101 to 999	Nc1cc([C@H](CCNC2CC[C@H](c3ccccc3)[C@@H](O)C2)c2ccccc2)c2nn[nH]c2n1 (stereo partly drawn) [Example 184, (1S,2R)-5-{[(3R)-3-{5-amino-3H-[1,2,3]triazolo[4,5-b]pyridin-7-yl}-3-phenylpropyl]amino}-2-phenylcyclohexan-1-ol]
1 to 100	1000 to 10000	Nc1cc(C(CCNC2CC(c3ccccc3)C2)c2ccccc2)c2nn[nH]c2n1 (single isomer, unassigned) [Example 81, 7-{1-phenyl-3-[(3-phenylcyclobutyl)amino]propyl}-3H-[1,2,3]triazolo[4,5-b] pyridin-5-amine]
